Experimental data taken from PMC10144058, “New Hybrid Scaffolds Based on 5-FU/Curcumin: Synthesis, Cytotoxic, Antiproliferative and Pro-Apoptotic Effect” (Pharmaceutics, 2023).
Like-named read-outs stand apart in the source and are kept apart here.

Key:
[1] = tested on: HaCaT cells; assay: Cell viability, sulforhodamine B (SRB) assay, non-malignant cells; type: cell-based; conditions: Homo sapiens
Experimental: SW480 (colon adenocarcinoma) and SW620 (derived metastatic) malignant cell lines, and the non-malignant lines HaCaT (human keratinocytes) and CHO-K1 (Chinese Hamster Ovary), were obtained from the European Collection of Authenticated Cell Cultures (ECACC, Porton Down, Salisbury, UK). The cells were maintained in Dulbecco’s Modified Eagle’s Medium (DMEM), supplemented with 10% equine serum previously inactivated at 56 °C, 1% penicillin/streptomycin, and 1% non-essential amino acids, and incubated at 37 °C in an atmosphere with 5% CO2. To carry out the experiments, the serum was diluted to 3% and additionally supplemented with […] insulin, […] transferrin, and 5 ng/mL selenium. Cells were used for experimentation when they reached 80–90% confluence, using a 1X trypsin enzymatic disintegration method. To avoid contamination by Mycoplasma spp., cell cultures were periodically analyzed by polymerase chain reaction (PCR).
Cell viability was evaluated with a sulforhodamine B (SRB) assay. This technique provides an index of protein contents in living and adherent cells, whose optical density can be related to cell concentration. Initially, 20,000 cells were seeded per well in 96-well culture plates. An initial adherence period of 24 h was performed at 37 °C, 5% CO2, and after this, the medium was replaced by another that contained the hybrid compounds in different concentrations. Then, the cells were left incubating for 24 and 48 h under the same conditions previously described. After the respective incubation times, the cells were fixed with trichloroacetic acid (50% v/v) for 1 h at 4 °C and stained with 0.4% (p/v) of SRB. Subsequently, washings with 1% acetic acid were carried out to eliminate possible nonspecific bindings, and after solubilization with 10 mM Tris-base, the absorbance was read at 492 nm in a microplate reader (Mindray MR-96A). All the experiments were carried out in triplicate.

[2] = tested on: SW480 cells; assay: Antiproliferative activity (SRB, 0-8 days); type: cell-based; conditions: Homo sapiens, read-out: Cell Viability (%) ± SE; for viability at 0.625 µM: SW480, 0.625 µM; for viability at 10 µM: SW480, 10 µM
Experimental: (§1) For this experiment, the same colorimetric method (SRB) from the evaluation of cell viability was used, although with some modifications. Initially, 2500 cells per well were seeded in 96-well culture plates, and a 24 h adherence period was performed at 37 °C in a 5% CO2 atmosphere. […] For this assay, incubation periods of 0, 2, 4, 6, and 8 days were used, and the fixation, staining, and reading conditions were the same as those previously described for the cytotoxicity assay.

[3] = tested on: SW620 cells; assay: Antiproliferative activity (SRB, 0-8 days); type: cell-based, human; conditions: for viability at 1.25 µM / viability at 20 µM: Homo sapiens, read-out: Cell Viability (%) ± SE; for viability at 1.25 µM: SW620, 1.25 µM; for viability at 20 µM: SW620, 20 µM
Experimental: as §1

[4] = SW-620, 48 h, 2 days after plating
[5] = SW-620, 96 h, 4 days after plating
[6] = SW-620, 144 h, 6 days after plating
[7] = SW-620, 192 h, 8 days after plating

COc1cc(/C=C/C(=O)c2ccc(OCCCCCn3cc(Cn4cc(F)c(=O)[nH]c4=O)nn3)cc2)ccc1O [Compound 6d, (E)-5-fluoro-1-((1-(5-(4-(3-(4-hydroxy-3-methoxyphenyl)acryloyl)phenoxy)pentyl)-1H-1,2,3-triazol-4-yl)methyl)pyrimidine-2,4(1H,3H)-dione]
IC50 ([1]; 24 h): 42.6 ± 6.93 µM
IC50 ([1]; 48 h): 20.3 ± 2.66 µM
viability at 0.625 µM ([2]; 48 h, 2 days after plating): 90.1 ± 1.45%
viability at 10 µM ([2]; 48 h, 2 days after plating): 7.35 ± 1.45%
viability at 0.625 µM ([2]; 96 h, 4 days after plating): 55.5 ± 2.21%
viability at 10 µM ([2]; 96 h, 4 days after plating): 0.75 ± 0.2%
viability at 0.625 µM ([2]; 144 h, 6 days after plating): 46.36 ± 0.18%
viability at 10 µM ([2]; 144 h, 6 days after plating): 0.68 ± 0.14%
viability at 0.625 µM ([2]; 192 h, 8 days after plating): 32.3 ± 0.77%
viability at 10 µM ([2]; 192 h, 8 days after plating): 0%
viability at 1.25 µM [3, 4]: 91 ± 2.85%
viability at 20 µM [3, 4]: 42.5 ± 4.57%
viability at 1.25 µM [3, 5]: 85.2 ± 3.23%
viability at 20 µM [3, 5]: 7.1 ± 0.95%
viability at 1.25 µM [3, 6]: 67.3 ± 2.32%
viability at 20 µM [3, 6]: 0%
viability at 1.25 µM [3, 7]: 54.4 ± 2.76%
viability at 20 µM [3, 7]: 0%
inhibition percentages (decrease in cell viability) ([3]; SW620, from 5 µM, day 2): higher than 30%
